Reference: US20260207777A1, “IMPROVED PEPTIDE INHIBITORS OF P53 BINDING PROTEIN 53BP1” (KAMAU THERAPEUTICS, INC., priority 2022, published 2026)

Tests used:
Format in all cases: cell-based, human
[1] = test system: CD34+ HSPCs; assay: lentiviral-based pooled functional screen of i53 variant libraries at the HBB locus; NGS enrichment in mCherry+GFP+ vs mCherry+GFP- cells; settings: MOI=2500
Protocol: CD34+ HSPC cells were transduced using lentivirus at MOIs of 0.25-1 at day 1 post thaw. Cells were concentrated using centrifugation (180 g×7 min), counted, and added at a concentration of 4×10^6 cells/mL to media containing lentivirus, cyclosporin A (5 μM, Sigma Aldrich) and Synperonic F108 (0.5 mg/mL, Sigma Aldrich). After 4 h of incubation, cells were spun down, washed once with media, and seeded into lentivirus-free media at a density of 3.5×10^5 cells/mL.
Chemically-modified single guide RNAs (sgRNAs) used to edit CD34+ HSPCs at the HBB locus were purchased from Synthego. […] Cells were collected, counted, and pelleted at 180 g×7 min. […]
Three days after transduction, cells were edited in triplicate or quadruplet at HBB as described above, using HBB-UBB-GFP donor AAV6 (MOI of 2.5×10^4 vector genomes/cell). […] The DNA concentration of each sample was measured using a Qubit 1×dsDNA BR assay kit (ThermoFisher).
An amplicon sequencing workflow was designed to sequence and quantify i53 variants within starting and post selection pools. […]
This approach was used to confirm sequence diversity in plasmid and lentiviral libraries prior to screening. For screening data analyses, a first quality control was performed on all runs to validate good values in number of mapped reads (>1e5 reads per sample), percent reads carried over from parent (from cloning), and overall distribution of sequences (no bias). […]

[2] = test system: CD34+ HSPCs; assay: editing of CD34+ HSPCs with purified i53 variant proteins and HBB-UBC-GFP AAV donor; flow cytometry; settings: HBB locus; protein 0.4 mg/mL; MOIs 625 and 2500; both donors
Protocol: Chemically-modified single guide RNAs (sgRNAs) used to edit CD34+ HSPCs at the HBB locus were purchased from Synthego. The sgRNA sequences were modified by adding 2′-O-methyl-3′-phosphorothioate at the three terminal nucleotides of the 5′ and 3′ ends. The target sequence for the HBB sgRNA is as follows: HBB: 5′[…]-3′ (SEQ ID NO: 74). Cas9 protein (SpyFi Cas9) was purchased from Aldevron. The RNPs were complexed at a Cas9:sgRNA molar ratio of 1:2.5 at 25° C. for 10-15 min prior to electroporation. Cells were collected, counted, and pelleted at 180 g×7 min. The cell pellets were resuspended in Maxcyte buffer with complexed RNPs and electroporated using a Maxcyte EXPERT ATx Nucleofector. After electroporation cells were plated at 3.5×10^5 cells/mL in media supplemented with cytokines and the desired AAV donor added at 5.0×10^2-2.5×10^4 vector genomes/cell. 24 h after nucleofection, cells were spun down, washed once with media, and seeded into AAV-free media at a density of 3.5×10^5 cells/mL.
CD34+ HPSCs were edited with protein variants 3 days post thaw and were harvested 2 days post nucleofection for NGS analysis or 3-5 days post nucleofection for GFP expression analysis. Editing reactions with proteins at a given concentration were repeated in duplicate or triplicate (either using the same CD34+ HSPC donor or across multiple donors).
Rates of targeted integration of the HBB UBC GFP donor were measured using a Beckman Coulter CytoFLEX. DAPI (Miltenyi Biotec) was used to discriminate live and dead cells. Flow cytometry data were analyzed using FlowJo 10 software.

[3] = test system: CD34+ HSPCs; assay: GFP knock-in at the HBA locus with purified i53 variants and HBA-UBC-GFP AAV; flow cytometry; settings: HBA locus; protein 0.4 mg/mL; MOIs 625 and 2500; both donors
From the text: (§1) Chemically-modified single guide RNAs (sgRNAs) were used to edit CD34+ HSPCs at the HBA, CCR5, and IL2RG loci. The sgRNA sequences were modified by adding 2′-O-methyl-3′-phosphorothioate at the three terminal nucleotides of the 5′ and 3′ ends. The target sequences for the HBA, CCR5, and IL2RG sgRNA are as follows: HBA: 5′-[…]-3′ (SEQ ID NO: 78), CCR5: 5′-[…]-3′ (SEQ ID NO: 79) IL2RG: 5′-[…]-3′ (SEQ ID NO: 80). Cas9 protein (SpyFi Cas9) was purchased from Aldevron. The RNPs were complexed at a Cas9:sgRNA molar ratio of 1:2.5 at 25° C. for 10-15 min prior to electroporation. Cells were collected, counted, and pelleted at 180 g×7 min. The cell pellets were resuspended in Maxcyte buffer with complexed RNPs and electroporated using a Maxcyte EXPERT ATx Nucleofector. After electroporation cells were plated at 3.5×10^5 cells/mL in media supplemented with cytokines and the desired AAV donor added at 5.0×10^2-2.5×10^4 vector genomes/cell. 24 h after nucleofection, cells were spun down, washed once with media, and seeded into AAV-free media at a density of 3.5×10^5 cells/mL. […]
(§2) Rates of targeted integration of the HBA-UBC-GFP, CCR5-UBC-GFP, and IL2RG-UBC-GFP donors were measured using a Beckman Coulter CytoFLEX. […] Flow cytometry data were analyzed using FlowJo 10 software.

[4] = test system: CD34+ HSPCs; assay: GFP knock-in at the CCR5 locus with purified i53 variants and CCR5-UBC-GFP AAV; flow cytometry; settings: CCR5 locus; protein 0.4 mg/mL; MOIs 625 and 2500; both donors
From the text: as §1, §2

[5] = test system: CD34+ HSPCs; assay: GFP knock-in at the IL2RG locus with purified i53 variants and IL2RG-UBC-GFP AAV; flow cytometry; settings: protein 0.4 mg/mL, MOIs 625 and 2500, both donors
From the text: as §1, §2

Substance | differential variant enrichment in the mCherry+GFP+ population relative to parent L67H ([1]; combinatorial library at positions 12 and 14, iterating on L67H) | % GFP incorporation relative to the no protein control [2] | % GFP incorporation relative to the no protein control [3] | % GFP incorporation relative to the no protein control [4] | % GFP incorporation relative to the no protein control [5] | differential variant enrichment in the mCherry+GFP+ population relative to parent L67R ([1]; combinatorial library at positions 12 and 14, parent L67R)
T12V.T14H.L67H: purified hit mutant of i53 | emerged as hits relative to parent L67H | increase % GFP incorporation relative to the no protein control | increase % GFP incorporation relative to the no protein control | increase % GFP incorporation relative to the no protein control | increase % GFP incorporation relative to the no protein control | –
T12Y.T14E.L67R: purified hit mutant of i53 | – | increase % GFP incorporation relative to the no protein control | increase % GFP incorporation relative to the no protein control | increase % GFP incorporation relative to the no protein control | increase % GFP incorporation relative to the no protein control | particularly beneficial to HDR levels at HBB relative to parent T12 T14 L67R
